Common to all, as to assay type: in vivo
For assay [1], the system named is Abuthilon. As to the kind of experiment: Pre-emergence test/greenhouse. The note with it: Table B, after three weeks. The procedure: (§1) To produce a suitable preparation of active compound, 1 part by weight of active compound is mixed with the stated amount of solvent, the stated amount of emulsifier is added and the concentrate is diluted with water to the desired concentration.
(§2) Seeds of the test plants are sown in normal soil and, after 24 hours, watered with the preparation of active compound. It is expedient to keep constant the amount of water per unit area. The concentration of the active compound in the preparation is of no importance, only the amount of active compound applied per unit area being decisive. After three weeks, the degree of damage to the plants is rated in % damage in comparison to the development of the untreated control. The figures denote:
(§3) 0%=no action (like untreated control)

In assay [2] the test system is Amaranthus. Put plainly: Pre-emergence test/greenhouse. Particulars: after three weeks. The procedure:
as §1, §2, §3

The test system of assay [3] is Barley. As to the kind of experiment: Pre-emergence test/greenhouse. Particulars: Table A, 125 g/ha, after three weeks. As for the experimental part: as §1, §2, §3
The subject of assay [4] is Chenopodium. As to the kind of experiment: Pre-emergence test/greenhouse. Particulars: after three weeks. As for the experimental part: as §1, §2, §3
Assay [5] has as its system Maize. Put plainly: Pre-emergence test/greenhouse. The note with it: after three weeks. The procedure: as §1, §2, §3
The test system of assay [6] is Matricaria. As to the kind of experiment: Pre-emergence test/greenhouse. The note with it: after three weeks. As for the experimental part:
as §1, §2, §3

For assay [7], the system named is Portulaca. As to the kind of experiment: Pre-emergence test/greenhouse. The note with it: after three weeks. As for the experimental part:
as §1, §2, §3

The subject of assay [8] is Solanum. Put plainly: Pre-emergence test/greenhouse. The note with it: after three weeks. The procedure:
as §1, §2, §3

The test system of assay [9] is Wheat. Put plainly: Pre-emergence test/greenhouse. The note with it: Table B, after three weeks. The procedure:
as §1, §2, §3

For assay [10], the system named is Abuthilon. Put plainly: Post-emergence test/greenhouse. Particulars: Table C, after three weeks. As for the experimental part: as §1
(§4) Test plants which have a height of 5-15 cm are sprayed with the preparation of active compound in such a way as to apply the particular amounts of active compound desired per unit area. After three weeks, the degree of damage to the plants is rated in % damage in comparison to the development of the untreated control.
(§5) 0%=no action (like intreated control)

For assay [11], the system named is Amaranthus. Put plainly: Post-emergence test/greenhouse. The note with it: Table C, after three weeks. As for the experimental part:
as §1, §4, §5

Assay [12] deals with Chenopodium. As to the kind of experiment: Post-emergence test/greenhouse. The note with it: Table C, after three weeks. The procedure:
as §1, §4, §5

The subject of assay [13] is Maize. Put plainly: Post-emergence test/greenhouse. Particulars: Table C, after three weeks. The procedure:
as §1, §4, §5

Assay [14] deals with Solanum. Put plainly: Post-emergence test/greenhouse. Particulars: Table C, after three weeks. As for the experimental part: as §1, §4, §5
The subject of assay [15] is Veronica. As to the kind of experiment: Post-emergence test/greenhouse. Particulars: Table C, after three weeks. The procedure: as §1, §4, §5
Assay [16] relates to Wheat. Put plainly: Post-emergence test/greenhouse. The note with it: Table C, after three weeks. As for the experimental part:
as §1, §4, §5

Consider `CCS(=O)(=O)Nc1cc(-n2nc(C(F)F)n(C)c2=S)c(F)cc1C(N)=S` [Example 3, 2-(2-fluoro-4-thiocarbamoyl-5-ethylsulphonylaminophenyl)-4-methyl-5-difluoromethyl-2,4-dihydro-3H-1,2,4-triazole-3-thione], for which the “degree of damage, Abuthilon” value in assay [1] (60 g/ha) and in assay [10] (30 g/ha) was 100% each time. Further, the “degree of damage, Amaranthus” value was found to be 100% in [2] (Table A, 125 g/ha); 100% in [2] (Table B, 60 g/ha); 100% in [11] (30 g/ha). Besides, in assay [3], the “degree of damage, Barley” value is 0%. For the same molecule, the “degree of damage, Chenopodium” value in [4] (Table A, 125 g/ha) was 100%; in [4] (Table B, 60 g/ha) it was 100%; in [12] (30 g/ha), 100%. The “degree of damage, Maize” value in [5] (Table A, 125 g/ha) came out at 0%; in assay [5] (Table B, 60 g/ha), 0%; in assay [13] (30 g/ha) it was 30%. In addition, the “degree of damage, Matricaria” value in [6] (Table A, 125 g/ha) was 100%; in assay [6] (Table B, 60 g/ha), 100%. For the same molecule, the “degree of damage, Portulaca” value is listed as 100% in assay [7] (Table A, 125 g/ha) and 100% in [7] (Table B, 60 g/ha). Besides, the “degree of damage, Solanum” value in assay [8] (Table A, 125 g/ha) was found to be 100%; in assay [8] (Table B, 60 g/ha) it was 100%; in assay [14] (30 g/ha) it was 100%. Also, the results for the “degree of damage, Wheat” value in assay [9] (60 g/ha) and in assay [16] (30 g/ha) were 0% and 10%, respectively. Further, the “degree of damage, Veronica” value in assay [15] (30 g/ha) is 100%.

As to `CCN(CC)CC.CCS(=O)(=O)Nc1cc(-n2nc(C)n(NC)c2=O)c(F)cc1C(N)=S` [Example 7], the “degree of damage, Abuthilon” value in assay [1] (125 g/ha) is given as 95%; in assay [10] (60 g/ha) it was 100%. For the same molecule, the “degree of damage, Amaranthus” value in [2] (Table A, 125 g/ha) is 100%; in [2] (Table B, 125 g/ha) it was 100%; in assay [11] (60 g/ha), 100%. The “degree of damage, Barley” value in assay [3] is 30%. Further, the “degree of damage, Chenopodium” value is on record as 100% in assay [4] (Table A, 125 g/ha); 100% in assay [4] (Table B, 125 g/ha); 95% in [12] (60 g/ha). Besides, the “degree of damage, Maize” value in [5] (Table A, 125 g/ha) is 0%; in assay [5] (Table B, 125 g/ha), 0%; in [13] (60 g/ha) it was 50%. In addition, the “degree of damage, Matricaria” value in assay [6] (Table A, 125 g/ha) is 95%; in assay [6] (Table B, 125 g/ha), 95%. Besides, the “degree of damage, Portulaca” value in assay [7] (Table A, 125 g/ha) turned out to be 100%; in [7] (Table B, 125 g/ha), 100%. The “degree of damage, Solanum” value in assay [8] (Table A, 125 g/ha) is 95%; in assay [8] (Table B, 125 g/ha), 95%; in assay [14] (60 g/ha) it was 100%. Besides, the “degree of damage, Wheat” value in assay [9] (125 g/ha) was 50%; in assay [16] (60 g/ha) it was 10%. Also, the “degree of damage, Veronica” value in assay [15] (60 g/ha) is on record as 95%.

(Values after US6451736B1, “Substituted aromatic thiocarboxylic acid amides and their use as herbicides” (Bayer Aktiengesellschaft, priority 1994, dated 2002).)
